{
  "source": "paper PMC10653918",
  "about": "“Antibiotic that inhibits trans-translation blocks binding of EF-Tu to tmRNA but not to tRNA” (mBio, 2023)",
  "key": {"[1]": {"system": "translation", "experiment": "In vitro translation assay (DHFR with stop codon, no tmRNA-SmpB)", "conditions": "DMSO control 100 ± 1"}, "[2]": {"system": "trans-translation", "experiment": "In vitro trans-translation assay (tagging of DHFR from nonstop template with tmRNA-SmpB)", "conditions": "10 µM compound; percentage of total DHFR in tagged DHFR band; DMSO control 90 ± 7"}, "[3]": {"system": "E. coli ∆tolC", "experiment": "microbe, parasite or virus in culture", "type": "cell-based", "conditions": "Escherichia coli"}, "[4]": {"system": "B. anthracis vegetative cells, germinants, and spores", "conditions": "in vitro and after ex vivo infection of macrophages; cited from earlier work"}, "[5]": {"molecular_target": "EF-Tu•GTP R318K (Escherichia coli, UniProt P0CE47, R319K)", "experiment": "MST binding assay, EF-Tu R318K mutant"}, "[6]": {"molecular_target": "EF-Tu•GTP E378A (Escherichia coli, UniProt P0CE47, E379A)", "experiment": "MST binding assay, EF-Tu E378A mutant"}, "[7]": {"molecular_target": "EF-Tu•GTP R318N (Escherichia coli, UniProt P0CE47, R319N)", "experiment": "MST binding assay, EF-Tu R318N mutant"}, "[8]": {"molecular_target": "EF-Tu•GTP H319A (Escherichia coli, UniProt P0CE47, H320A)", "experiment": "MST binding assay, EF-Tu H319A mutant"}, "[9]": {"molecular_target": "EF-Tu•GDP (Escherichia coli, UniProt P0CE47)", "experiment": "MST binding assay, EF-Tu•GDP", "design": "species or system E. coli"}, "[10]": {"molecular_target": "E. coli EF-Tu•GTP (Escherichia coli, UniProt P0CE47)", "experiment": "biochemical", "type": "binding"}, "[11]": {"system": "Francisella tularensis", "conditions": "compared with tetracycline; cited from earlier work"}, "[12]": {"system": "EF-Tu•GTP (Escherichia coli MG1655 (pCA24N tufA, ASKA clone JW3301))", "experiment": "filter binding", "conditions": "10 mM Mg2+, 44 mM KH2PO4, 6 mM K2HPO4, 10 mM MgCl2, 50 µg/mL BSA, pH 5.5 (RNA-binding mix; 34 µL mix + 16 µL EF-Tu), 0.1 nM RNA, 15 s at room temperature"}, "[13]": {"conditions": "no KKL-55, 3'-alanylated with AlaRS"}},
  "note": "Where two headings read alike, the source gives them in different places.",
  "data": [
    {"compound": "O=C(N[C@H](CO)[C@H](O)c1ccc([N+](=O)[O-])cc1)C(Cl)Cl", "note": "[chlor, chloramphenicol, reference compound]", "values": [
      {"measurement": "translation efficiency ± SD", "setting": "[1]; 100 µM compound", "value": "5 ± 3", "unit": "%"}
    ]},
    {"compound": "CCCn1nnnc1NC(=O)c1cccc(Cl)c1", "note": "[KKL-55]", "values": [
      {"measurement": "tagging efficiency ± SD", "setting": "[2]", "value": "30 ± 2", "unit": "%"},
      {"measurement": "MIC", "setting": "[3]", "value": 2.3, "unit": "µM"},
      {"measurement": "bactericidal activity", "setting": "[4]", "value": "bactericidal"},
      {"measurement": "Kd", "setting": "[5]", "value": 2.6, "unit": "µM"},
      {"measurement": "Kd", "setting": "[6]", "value": "2.6 ± 0.2", "unit": "µM"},
      {"measurement": "Kd", "setting": "[6]; MST, E378A EF-Tu•GTP", "value": "little effect on binding affinity"},
      {"measurement": "Kd", "setting": "[7]", "value": "> 20", "unit": "µM"},
      {"measurement": "Kd", "setting": "[8]", "value": "2.4 ± 0.1", "unit": "µM"},
      {"measurement": "Kd", "setting": "[8]; MST, H319A EF-Tu•GTP", "value": "little impact on binding"},
      {"measurement": "Kd", "setting": "[9]", "value": "1.6 ± 0.02", "unit": "µM"},
      {"measurement": "Kd", "setting": "[10]", "value": 2, "unit": "µM"},
      {"measurement": "MIC", "setting": "[11]", "value": "comparable to that of tetracycline"},
      {"measurement": "translation efficiency ± SD", "setting": "[1]; 100 µM compound", "value": "102 ± 2", "unit": "%"}
    ]},
    {"compound": "O=C(CCCCC1SCC2NC(=O)NC21)NCCn1nnnc1NC(=O)c1cccc(Cl)c1", "note": "(centres unmarked) [KKL-201]", "values": [
      {"measurement": "tagging efficiency ± SD", "setting": "[2]", "value": "42 ± 2", "unit": "%"},
      {"measurement": "translation efficiency ± SD", "setting": "[1]; 10 µM compound", "value": "99 ± 6", "unit": "%"}
    ]},
    {"compound": "Ala-tRNAAla", "values": [
      {"measurement": "Kd", "setting": "[12]; [13]", "value": 0.28, "unit": "µM"}
    ]},
    {"compound": "Ala-tmRNA", "values": [
      {"measurement": "Kd", "setting": "[12]; 25 µM KKL-55 (substantially reduced, no saturation), 3'-alanylated with AlaRS", "value": "> 10", "unit": "µM"},
      {"measurement": "Kd", "setting": "[12]; [13]", "value": 0.75, "unit": "µM"}
    ]},
    {"compound": "O=C(Nc1nnc(-c2ccc(F)cc2)o1)c1ccc(Cl)cc1", "note": "[KKL-35, reference compound]", "values": [
      {"measurement": "binding to EF-Tu", "setting": "[10]", "value": "No binding"}
    ]}
  ]
}
